Results: ChEMBL document CHEMBL1158549, “Synthesis and evaluation of a series of C5'-substituted duocarmycin SA analogs” (Bioorg Med Chem Lett, 2010)

The compounds below were run on L1210 (assay: Cytotoxicity against mouse L1210 cells).
Assay type: functional, cell-based

`COC(=O)c1cc2c([nH]1)C(=O)C=C1N(C(=O)c3cc4cc(C(C)=O)ccc4[nH]3)C[C@H]3C[C@]123` was tested. Which IC50 did it give?
The IC50 was 0.043 nM.

With `COC(=O)c1cc2c3c(cc(O)c2[nH]1)N(C(=O)c1cc2cc(C(F)(F)F)ccc2[nH]1)C[C@H]3CCl` as the compound, how does the IC50 read?
The IC50 was 0.075 nM.

`COC(=O)c1cc2c([nH]1)C(=O)C=C1N(C(=O)c3cc4ccccc4[nH]3)C[C@H]3C[C@]123` was tested. Which IC50 did it give?
Its IC50 is 0.068 nM.

For `CNC(=O)c1ccc2[nH]c(C(=O)N3C[C@@H](CCl)c4c3cc(O)c3[nH]c(C(=O)OC)cc43)cc2c1`, which IC50 is on record?
The IC50 was 0.061 nM.

Which IC50 does the source give for `COC(=O)c1cc2c3c(cc(O)c2[nH]1)N(C(=O)c1cc2ccccc2[nH]1)C[C@H]3CCl` here?
The IC50 was 0.072 nM.

How did the IC50 turn out when `COC(=O)c1cc2c3c(cc(O)c2[nH]1)N(C(=O)c1cc2cc(S(C)(=O)=O)ccc2[nH]1)C[C@H]3CCl` was run?
Its IC50 is 0.058 nM.

Which IC50 does the source give for `COC(=O)c1cc2c([nH]1)C(=O)C=C1N(C(=O)c3cc4cc(OC)ccc4[nH]3)C[C@H]3C[C@]123` here?
The IC50 was 0.0075 nM.

`COC(=O)c1cc2c([nH]1)C(=O)C=C1N(C(=O)c3cc4cc(O)c(OC)cc4[nH]3)C[C@H]3C[C@]123` was tested. Which IC50 did it give?
The IC50 was 0.033 nM.

With `COC(=O)c1cc2c([nH]1)C(=O)C=C1N(C(=O)c3cc4cc(S(C)(=O)=O)ccc4[nH]3)C[C@H]3C[C@]123` as the compound, how does the IC50 read?
Its IC50 is 0.058 nM.

How did the IC50 turn out when `COC(=O)c1cc2c([nH]1)C(=O)C=C1N(C(=O)c3cc4cc(C)ccc4[nH]3)C[C@H]3C[C@]123` was run?
The IC50 was 0.077 nM.

With `COC(=O)c1cc2c([nH]1)C(=O)C=C1N(C(=O)c3cc4cc(F)ccc4[nH]3)C[C@H]3C[C@]123` as the compound, how does the IC50 read?
The IC50 was 0.054 nM.

Which IC50 does the source give for `COC(=O)c1ccc2[nH]c(C(=O)N3C[C@@H](CCl)c4c3cc(O)c3[nH]c(C(=O)OC)cc43)cc2c1` here?
The IC50 was 0.048 nM.

With `COC(=O)c1cc2c3c(cc(O)c2[nH]1)N(C(=O)c1cc2cc(NC(C)=O)ccc2[nH]1)C[C@H]3CCl` as the compound, how does the IC50 read?
Its IC50 is 0.081 nM.

How did the IC50 turn out when `COC(=O)c1cc2c3c(cc(O)c2[nH]1)N(C(=O)c1cc2cc(OC(F)(F)F)ccc2[nH]1)C[C@H]3CCl` was run?
Its IC50 is 0.085 nM.

Which IC50 does the source give for `COC(=O)c1cc2c3c(cc(O)c2[nH]1)N(C(=O)c1cc2cc(O)ccc2[nH]1)C[C@H]3CCl` here?
The IC50 was 0.05 nM.

For `COC(=O)c1cc2c([nH]1)C(=O)C=C1N(C(=O)c3cc4cc(C#N)ccc4[nH]3)C[C@H]3C[C@]123`, which IC50 is on record?
The IC50 was 0.007 nM.

Which IC50 does the source give for `COC(=O)c1cc2c([nH]1)C(=O)C=C1N(C(=O)c3cc4cc([N+](=O)[O-])ccc4[nH]3)C[C@H]3C[C@]123` here?
Its IC50 is 0.041 nM.

Which IC50 does the source give for `COC(=O)c1cc2c3c(cc(O)c2[nH]1)N(C(=O)c1cc2cc(OC)ccc2[nH]1)C[C@H]3CCl` here?
The IC50 was 0.021 nM.

How did the IC50 turn out when `COC(=O)c1ccc2[nH]c(C(=O)N3C[C@H]4C[C@@]45C3=CC(=O)c3[nH]c(C(=O)OC)cc35)cc2c1` was run?
The IC50 was 0.047 nM.

Which IC50 does the source give for `COC(=O)c1cc2c([nH]1)C(=O)C=C1N(C(=O)c3cc4cc(OC(F)(F)F)ccc4[nH]3)C[C@H]3C[C@]123` here?
The IC50 was 0.049 nM.

How did the IC50 turn out when `COC(=O)c1cc2c([nH]1)C(=O)C=C1N(C(=O)c3cc4cc(C(F)(F)F)ccc4[nH]3)C[C@H]3C[C@]123` was run?
The IC50 was 0.065 nM.

Which IC50 does the source give for `COC(=O)c1cc2c3c(cc(O)c2[nH]1)N(C(=O)c1cc2cc(C(C)=O)ccc2[nH]1)C[C@H]3CCl` here?
Its IC50 is 0.038 nM.

Which IC50 does the source give for `CNC(=O)c1ccc2[nH]c(C(=O)N3C[C@H]4C[C@@]45C3=CC(=O)c3[nH]c(C(=O)OC)cc35)cc2c1` here?
The IC50 was 0.07 nM.

Which IC50 does the source give for `COC(=O)c1cc2c([nH]1)C(=O)C=C1N(C(=O)c3cc4cc(OC)c(OC)c(OC)c4[nH]3)C[C@H]3C[C@]123` [DUOCARMYCIN] here?
Its IC50 is 0.006 nM.

Which IC50 does the source give for `COC(=O)c1cc2c([nH]1)C(=O)C=C1N(C(=O)c3cc4cc(NC(C)=O)ccc4[nH]3)C[C@H]3C[C@]123` here?
Its IC50 is 0.083 nM.

With `COC(=O)c1cc2c3c(cc(O)c2[nH]1)N(C(=O)c1cc2cc(F)ccc2[nH]1)C[C@H]3CCl` as the compound, how does the IC50 read?
The IC50 was 0.079 nM.

With `COC(=O)c1cc2c([nH]1)C(=O)C=C1N(C(=O)c3cc4cc(O)ccc4[nH]3)C[C@H]3C[C@]123` as the compound, how does the IC50 read?
Its IC50 is 0.053 nM.

For `COC(=O)c1cc2c([nH]1)C(=O)C=C1N(C(=O)c3cc4cc(OC)c(O)cc4[nH]3)C[C@H]3C[C@]123`, which IC50 is on record?
Its IC50 is 0.007 nM.

With `COC(=O)c1cc2c3c(cc(O)c2[nH]1)N(C(=O)c1cc2cc(C)ccc2[nH]1)C[C@H]3CCl` as the compound, how does the IC50 read?
Its IC50 is 0.078 nM.

For `COC(=O)c1cc2c3c(cc(O)c2[nH]1)N(C(=O)c1cc2cc(C#N)ccc2[nH]1)C[C@H]3CCl`, which IC50 is on record?
The IC50 was 0.009 nM.
